Experiment [1] is described as follows: Inhibition of […] AKR1B1 expressed in Escherichia coli BL21 using D,L-glyceraldehyde as substrate pretreated for 5 mins followed by substrate addition by spectrophotometric method. The following applies: for Ki: read-out: Ki(app).
Experiment [2] concerns the target Aldo-keto reductase family 1 member B10 (Homo sapiens, UniProt O60218). Description: Inhibition of N-terminal His10-tagged AKR1B10 (unknown origin) expressed in Escherichia coli BL21 using D,L-glyceraldehyde as substrate pretreated for 5 mins followed by substrate addition by spectrophotometric method.
A short description of experiment [3]: Selectivity ratio of IC50 for N-terminal His10-tagged AKR1B10 (unknown origin) expressed in Escherichia coli BL21 to IC50 for […] AKR1B1 expressed in Escherichia coli BL21.
The next experiment has as its system HT-1080. Description: Cytotoxicity against human HT1080 cells after 72 hrs by MTT assay. Format: functional, cell-based. The settings on record: HT-1080, 72 h.
The species entered for the next experiment is Cricetulus griseus. Description: Inhibition of […] AKR1B1 expressed in Escherichia coli BL21 up to 10 uM using D,L-glyceraldehyde as substrate pretreated for 5 mins followed by substrate addition by spectrophotometric method.

The source made the active and inactive calls. The rule behind the calls is not given here.

Aldo-keto reductase family 1 member B10, sequence (O60218 whole entry): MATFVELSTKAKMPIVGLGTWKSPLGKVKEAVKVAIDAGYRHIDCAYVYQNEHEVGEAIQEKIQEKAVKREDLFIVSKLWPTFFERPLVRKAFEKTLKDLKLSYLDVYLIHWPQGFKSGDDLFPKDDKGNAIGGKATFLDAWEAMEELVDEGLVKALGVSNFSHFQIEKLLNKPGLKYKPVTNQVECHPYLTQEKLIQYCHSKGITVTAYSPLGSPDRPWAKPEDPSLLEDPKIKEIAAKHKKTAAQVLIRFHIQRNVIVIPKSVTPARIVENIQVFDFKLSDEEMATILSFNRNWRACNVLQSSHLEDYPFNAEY

Usually IC50 stands for the concentration that inhibits the measured activity by half. Take `Cc1nc2c(-c3ccc(Cl)cc3)nc3ccc(Cl)cc3c2c(=O)n1CC(=O)O`: the IC50 is 1540 nM in experiment [1], 9.61 µM in experiment [2] and 30.2 µM in the experiment with HT-1080. Further, the Ratio IC50 in experiment [3] stood at 6.
Take `Cc1nc2c(-c3ccc(Br)cc3)nc3ccccc3c2c(=O)n1CC(=O)O`: the IC50 is 200 nM in experiment [1], 10 µM in experiment [2] and over 100 µM with HT-1080. Further, the Ki in experiment [1] is 150 nM. Besides, the Ratio IC50 in experiment [3] came out at 50.
Regarding `CCCc1nc2c(-c3ccc(Cl)cc3)nc3ccccc3c2c(=O)n1CC(=O)O`, the IC50 in experiment [1] is 190 nM; in experiment [2] it was 3.33 µM. Further, the Ki in experiment [1] turned out to be 130 nM. The Ratio IC50 in experiment [3] turned out to be 18.
Taken in the same sequence, the figures for `Cc1nc2c(-c3ccccc3)nc3ccccc3c2c(=O)n1CC(=O)O` were 430 to 460 nM, 6.39 µM, 440 nM and 14.
For the compound `Nn1c(-c2ccc(Br)cc2)nc2c(-c3ccc(Br)cc3)nc3ccc(Cl)cc3c2c1=O`, in the experiment listed under Cricetulus griseus, the inhibition entry was “inactive”.
As to `Cc1nc2c(-c3ccc(Cl)cc3)nc3ccccc3c2c(=O)n1CC(=O)O`, the IC50 in experiment [1] is 210 nM; in experiment [2], 7.86 µM; with HT-1080, over 100 µM. In experiment [1], the Ki came out at 130 nM. Further, in experiment [3], the Ratio IC50 is 37.
For `Cc1nc2c(-c3ccc(Br)cc3)nc3ccc(Br)cc3c2c(=O)n1CC(=O)O`, the IC50 is 1570 nM in experiment [1], 16.3 µM in experiment [2] and over 100 µM in the experiment with HT-1080. In experiment [3], the Ratio IC50 was found to be 10.
As to `COc1ccc(-c2nc3ccc(Cl)cc3c3c(=O)n(CC(=O)O)c(C)nc23)cc1`, the IC50 was 760 nM in experiment [1], 17 µM in experiment [2] and 78.1 µM in the experiment with HT-1080. In addition, the Ratio IC50 in experiment [3] amounted to 22.
For `O=C(O)Cn1c(Cc2ccc(Cl)cc2)nc2c(-c3ccc(Cl)cc3)nc3ccccc3c2c1=O`, the IC50 was 1010 nM in experiment [1] and 2.99 µM in experiment [2]. Besides, the Ratio IC50 in experiment [3] is 3.
`Cc1ccc2nc(-c3ccc(Cl)cc3)c3nc(C)n(CC(=O)O)c(=O)c3c2c1`: the concentration for half-maximal inhibition (IC50) in experiment [1] is 4920 nM; in experiment [2], 28.5 µM; in the experiment on HT-1080, over 100 µM. Moreover, in experiment [3], the Ratio IC50 was 6.
Regarding `COc1ccc2nc(-c3ccc(Cl)cc3)c3nc(C)n(CC(=O)O)c(=O)c3c2c1`, the IC50 in experiment [1] is 3140 nM; in experiment [2], 15 µM; with HT-1080, 86.7 µM. Further, in experiment [3], the Ratio IC50 stood at 5.
Taken in the same sequence, the figures for `Cc1nc2c(-c3ccc(Cl)cc3)nc3ccc(Br)cc3c2c(=O)n1CC(=O)O` were 2220 nM, 17.8 µM, over 100 µM and 8.
Take `Cc1nc2c(-c3ccc(Cl)cc3)nc3ccc(F)cc3c2c(=O)n1CC(=O)O`: the IC50 is 350 nM in experiment [1], 8.18 µM in experiment [2] and over 100 µM with HT-1080. In addition, the Ki in experiment [1] was 240 nM. Further, the Ratio IC50 in experiment [3] is 23.
With `Cc1nc2c(-c3ccc(Br)cc3)nc3ccc(F)cc3c2c(=O)n1CC(=O)O`, the IC50 in experiment [1] was 570 nM; in experiment [2] it was 9.61 µM; with HT-1080, over 100 µM. The Ratio IC50 in experiment [3] was 17.
As to `CCc1nc2c(-c3ccc(Cl)cc3)nc3ccccc3c2c(=O)n1CC(=O)O`, in experiment [1], the IC50 was found to be 120 nM and the Ki was 73 nM. Also, in experiment [2], the IC50 turned out to be 4.71 µM. Also, in experiment [3], the Ratio IC50 turned out to be 39.
Regarding `O=C(O)Cn1c(Cc2ccc(Cl)cc2)nc2c(-c3ccccc3)nc3ccccc3c2c1=O`, the values for the IC50 in experiment [1] and in experiment [2] were 660 nM and 5.87 µM, respectively. Besides, the Ratio IC50 in experiment [3] came to 9.
For `COc1cccc2c1C(=O)c1c(O)c3c(c(O)c1C2=O)C[C@@](O)(C(=O)CO)C[C@@H]3O[C@H]1C[C@H](N)[C@H](O)[C@H](C)O1` [DOXORUBICIN], in the experiment on HT-1080, the 50% inhibitory concentration (IC50) turned out to be 0.0058 µM.
For `COc1ccc(-c2nc3ccc(F)cc3c3c(=O)n(CC(=O)O)c(C)nc23)cc1`, the IC50 was 260 nM in experiment [1], 10 µM in experiment [2] and over 100 µM in the experiment with HT-1080. In addition, the Ki in experiment [1] was determined as 240 nM. The Ratio IC50 in experiment [3] stood at 38.
Take `O=C(O)Cn1c(Cc2ccccc2)nc2c(-c3ccc(Cl)cc3)nc3ccccc3c2c1=O`: the 50% inhibitory concentration (IC50) in experiment [1] was found to be 2650 nM; in experiment [2], 2.35 µM. Besides, the Ratio IC50 in experiment [3] is 1.
As for `Nn1c(-c2ccc(Cl)cc2)nc2c(-c3ccc(Cl)cc3)nc3ccc(Cl)cc3c2c1=O`, the inhibition result in the experiment filed under Cricetulus griseus is “inactive”.
With `CCc1nc2c(-c3ccc(Cl)cc3)nc3ccc(F)cc3c2c(=O)n1CC(=O)O`, the IC50 in experiment [1] turned out to be 410 nM; in experiment [2] it was 3.89 µM. Moreover, the Ki in experiment [1] turned out to be 500 nM. In experiment [3], the Ratio IC50 amounted to 9.
With `Cc1nc2c(-c3ccc(Br)cc3)nc3ccc(Cl)cc3c2c(=O)n1CC(=O)O`, the values for the concentration for half-maximal inhibition (IC50) (in experiment [1]; in experiment [2]; with HT-1080) were 1920 nM, 13.8 µM and over 100 µM, respectively. Also, in experiment [3], the Ratio IC50 came to 7.

Values taken from ChEMBL document CHEMBL4152238, “Design, synthesis, structure-activity relationships and X-ray structural studies of novel 1-oxopyrimido[4,5-c]quinoline-2-acetic acid derivatives as selective and potent inhibitors of human aldose reductase” (Eur J Med Chem, 2018).
